This is an account of results in PMC11387175, “Model informed dose regimen optimizing in development of leritrelvir for the treatment of mild or moderate COVID-19” (Frontiers in Pharmacology, 2024).

In assay [1] the test system is Omicron XBB.1.9.1 variant. Also noted: method as in Chen et al., 2024. The note with it: ref Chen et al., 2024, read-out: concentration for 90% of maximal effect (EC90); cited from earlier work.
The next assay relates to Omicron variant. As to the kind of experiment: Target concentration needed to achieve EC90. The assay is classed as cell-based, SARS-CoV-2.

Consider `O=C(NC1CCCC1)C(=O)[C@H](C[C@@H]1CCNC1=O)NC(=O)[C@@H]1[C@H]2CCC[C@H]2CN1C(=O)[C@@H](NC(=O)C(F)(F)F)C1CCCCC1` [leritrelvir], for which the EC90 in assay [1] was 415 nM. Moreover, the “concentration needed to achieve EC90” value in the assay on Omicron variant is 0.2097 µg/mL.
